Measured values published in patent US20060122260A1, “Intermediates for aromatic polyketides as selective anticancer and antiviral agents” (priority 2002, published 2006).
Converted amounts (≈) assume the structure as drawn. “Also recorded” adds a separate entry of the source.

Experiments:
Stability = type: physicochemical; settings: for stability in purification process and bioassays: typical conditions used in the purification process and in bioassays
From the text: It is the methyl ester of the S2507 acid.

pKa = type: physicochemical; settings: comparable to acetic acid
[1] = test system: melanoma cell lines (MAL-ME-3M, M14, SK-MEL-5); test: NCI 60-cell line panel, melanoma cell lines; type: cell-based, human; settings: some melanoma cell lines
From the text: National Cancer Institute (NCI) tested both of the compounds in their 60-cell line panel (copy of their report available). NCI uses a 48-hour continuous drug exposure protocol. Cell viability and growth are estimated using a sulforhodamine B (SRB) protein assay. The screen is described on the web site: http://dtp.nci.nih.gov. […] However, a mean value of ED50 is at micro molar range against some melanoma cell lines (MAL-ME-3M, M14, SK-MEL-5).

uninfected cells = test: Cytotoxicity in the parvovirus model; settings: for effect on uninfected cells: parvovirus model
mice = test: In vivo toxicity, preliminary dose range finding study; settings: single i.p. 100, 50, 25, 12.5 and 6.25 mg/kg, two weeks
Procedure: The drug was injected once i.p. at doses 100, 50, 25, 12.5 and 6.25 mg/kg to two mice at each dose level. The mice were observed daily and weighed every 3 to 5 days for two weeks.

RS virus = test: Activity testing in human virus models: RS virus; type: cell-based; settings: for activity against virus: RS virus, concentrations tested 1 μM and 100 μM; for inhibition at 1 µM / inhibition at 100 µM: human respiratory syncytial virus, RSV
Procedure: (§1) The results obtained from the parvovirus model encouraged us to carry out the bioactivity tests using human viruses as targets. Selected RNA- and DNA-viruses were tested; herpes simplex (HSV), adenovirus, influenza B, RS virus, cytomegalovirus (CMV), and CBV5 virus. […] The concentrations tested were 1 μM and 100 μM. The cytotoxic effect was not found using 1 μM of S2502 or S2507. Instead, 100 μM of S2502 was toxic to the cells used for CBV5 and HSV infection, and 100 μM of S2507 was toxic to the cells used for HSV infection.
(§2) S2507 and S2502 were further tested in human virus models: herpes simplex (HSV), adenovirus, influenza B, RS virus, cytomegalovirus and CBV5 virus. […] The compounds were active when administered simultaneously or before an infection (prophylactic) and half an hour after the infection. […] However, in HSV 100 μM concentration was toxic.

herpes simplex (HSV) = test: Activity testing in human virus models: HSV; type: cell-based, herpes simplex virus; settings: for activity against virus: HSV, concentrations tested 1 μM and 100 μM; for inhibition % 100 μM / inhibition at 1 µM: Herpes (HSV); for inhibition at 1 µM: Homo sapiens
Procedure: as §1, §2

MES-SA = test: Typical cytotoxicity screen, MES-SA
CBV5 virus = test: Activity testing in human virus models: CBV5; type: cell-based; settings: for inhibition at 1 µM: CBV5, 1 μM; for activity against virus: CBV5 virus, concentrations tested 1 μM and 100 μM
Procedure: as §1, §2

[2] = test system: Canine parvovirus type 2 (CPV-d); test: Parvovirus infectivity screening (animal virus model); type: cell-based; settings: for antiviral activity against parvovirus (inhibition of infection of cells): drug added simultaneously with CPV, 24 h p.i.
adenovirus = test: Activity testing in human virus models: adenovirus; type: cell-based; settings: for activity against virus: adenovirus, concentrations tested 1 μM and 100 μM; for inhibition at 1 µM / inhibition at 100 µM: unidentified adenovirus, Adeno
Procedure: as §1, §2

influenza B = test: Activity testing in human virus models: influenza B; type: cell-based; settings: for inhibition at 1 µM / inhibition at 100 µM: Influenza B virus, Influenza B; for activity against virus: influenza B, concentrations tested 1 μM and 100 μM
cytomegalovirus (CMV) = test: Activity testing in human virus models: cytomegalovirus; type: cell-based; settings: for activity against virus: CMV, concentrations tested 1 μM and 100 μM; for inhibition at 1 µM / inhibition at 100 µM: Human betaherpesvirus 5, Cytomegalo
Procedure: as §1, §2

[3] = test system: cells used for HSV infection; test: Toxicity to cells used for HSV infection; type: cell-based; settings: 100 μM
Procedure: as §1, §2

MES-SA/Dx5 = test: Typical cytotoxicity screen, MES-SA/Dx5
[4] = test system: control cultivations without virus; test: Cytotoxic effect on cells in the human virus tests (control cultivations without virus); settings: for cytotoxic effect: 1 μM; for tolerance of control cultivations without virus: utilized drug concentrations (100 and 1 μM)
[5] = test system: cells used for CBV5 infection; test: Toxicity to cells used for CBV5 infection; type: cell-based; settings: 100 μM
Procedure: as §1

[6] = target: T1, human topoisomerase II (p170 form) (Homo sapiens, UniProt P11388); test: Topoisomerase II drug screening kit; type: biochemical
T1 construct: purchased TopoGEN, Inc, Columbus, Ohio
T1 sequence (P11388 whole entry): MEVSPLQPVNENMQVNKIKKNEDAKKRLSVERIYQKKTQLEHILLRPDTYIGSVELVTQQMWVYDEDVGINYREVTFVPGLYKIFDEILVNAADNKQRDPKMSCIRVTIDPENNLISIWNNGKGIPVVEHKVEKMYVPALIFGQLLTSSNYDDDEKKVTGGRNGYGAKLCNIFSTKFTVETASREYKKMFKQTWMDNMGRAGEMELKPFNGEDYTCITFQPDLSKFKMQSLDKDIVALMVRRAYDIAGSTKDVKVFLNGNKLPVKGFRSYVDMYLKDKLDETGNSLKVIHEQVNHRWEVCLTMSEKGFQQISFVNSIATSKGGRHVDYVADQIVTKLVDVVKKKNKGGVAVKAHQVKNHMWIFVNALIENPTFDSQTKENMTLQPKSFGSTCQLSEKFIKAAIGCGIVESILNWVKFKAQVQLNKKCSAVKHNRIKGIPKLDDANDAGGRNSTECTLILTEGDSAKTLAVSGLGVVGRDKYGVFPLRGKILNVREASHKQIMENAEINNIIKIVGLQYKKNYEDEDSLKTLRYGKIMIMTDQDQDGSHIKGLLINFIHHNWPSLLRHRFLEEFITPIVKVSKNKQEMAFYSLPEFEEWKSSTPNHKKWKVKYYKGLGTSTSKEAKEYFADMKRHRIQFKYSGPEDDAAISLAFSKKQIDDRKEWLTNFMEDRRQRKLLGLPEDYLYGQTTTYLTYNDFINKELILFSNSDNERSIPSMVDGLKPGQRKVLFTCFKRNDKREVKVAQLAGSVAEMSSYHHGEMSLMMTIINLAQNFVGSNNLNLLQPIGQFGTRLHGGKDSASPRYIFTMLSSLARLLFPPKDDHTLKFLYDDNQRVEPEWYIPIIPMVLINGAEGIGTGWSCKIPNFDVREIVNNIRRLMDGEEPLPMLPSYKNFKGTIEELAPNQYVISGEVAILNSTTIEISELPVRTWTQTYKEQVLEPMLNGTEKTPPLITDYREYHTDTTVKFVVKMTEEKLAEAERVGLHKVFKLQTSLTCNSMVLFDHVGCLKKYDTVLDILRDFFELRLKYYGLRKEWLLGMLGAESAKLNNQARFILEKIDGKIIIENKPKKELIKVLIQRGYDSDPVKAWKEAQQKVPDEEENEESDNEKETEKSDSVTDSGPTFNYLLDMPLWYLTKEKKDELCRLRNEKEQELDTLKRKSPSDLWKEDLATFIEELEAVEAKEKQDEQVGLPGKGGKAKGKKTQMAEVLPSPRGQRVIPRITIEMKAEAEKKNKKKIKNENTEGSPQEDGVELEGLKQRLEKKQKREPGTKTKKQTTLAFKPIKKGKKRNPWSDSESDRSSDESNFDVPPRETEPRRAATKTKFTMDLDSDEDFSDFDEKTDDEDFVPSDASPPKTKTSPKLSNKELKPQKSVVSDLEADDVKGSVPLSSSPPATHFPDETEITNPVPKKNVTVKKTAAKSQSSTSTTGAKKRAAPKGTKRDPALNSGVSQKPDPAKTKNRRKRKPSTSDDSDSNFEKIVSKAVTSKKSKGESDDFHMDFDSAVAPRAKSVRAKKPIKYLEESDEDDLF
Procedure: (§3) In order to understand the mechanism of anticancer activity, the inhibition of topoisomerases by S2502 was studied. The topoisomerase assays were done using Topoisomerase I and II drug screening kits with human topoisomerase I and II (p170 form) enzymes, respectively, according to the manufacturer's (TopoGEN, Inc, Columbus, Ohio) instructions. […] Minimal inhibitory concentrations were 25 μM against Topoisomerase 1 and 50 μM against Topoisomerase II.

human topoisomerase I = target: T2, human topoisomerase I (Homo sapiens, UniProt P11387); test: Topoisomerase I drug screening kit; type: biochemical
T2 construct: purchased TopoGEN, Inc, Columbus, Ohio
T2 sequence (P11387 1-765): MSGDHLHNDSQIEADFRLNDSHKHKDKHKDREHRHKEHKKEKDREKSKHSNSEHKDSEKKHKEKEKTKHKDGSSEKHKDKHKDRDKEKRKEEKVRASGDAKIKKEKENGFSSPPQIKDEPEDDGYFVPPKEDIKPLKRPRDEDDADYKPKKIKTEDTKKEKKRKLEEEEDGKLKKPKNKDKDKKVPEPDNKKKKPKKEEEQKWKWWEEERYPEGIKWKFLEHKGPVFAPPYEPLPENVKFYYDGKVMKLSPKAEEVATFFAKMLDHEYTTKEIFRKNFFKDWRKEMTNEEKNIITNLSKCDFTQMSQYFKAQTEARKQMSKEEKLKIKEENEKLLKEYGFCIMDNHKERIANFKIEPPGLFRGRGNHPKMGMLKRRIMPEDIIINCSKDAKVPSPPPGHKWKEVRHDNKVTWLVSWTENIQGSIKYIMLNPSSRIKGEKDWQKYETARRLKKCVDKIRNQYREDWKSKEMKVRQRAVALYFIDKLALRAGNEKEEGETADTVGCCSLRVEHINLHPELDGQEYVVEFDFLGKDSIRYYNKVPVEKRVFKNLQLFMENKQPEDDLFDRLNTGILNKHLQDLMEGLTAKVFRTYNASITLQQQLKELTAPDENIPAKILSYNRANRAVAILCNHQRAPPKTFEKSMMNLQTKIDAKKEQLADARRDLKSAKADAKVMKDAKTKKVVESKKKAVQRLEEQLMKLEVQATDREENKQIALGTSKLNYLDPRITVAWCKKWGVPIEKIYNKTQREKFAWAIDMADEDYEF
Procedure: as §3

SMILES | stability under normal laboratory conditions (Stability) | stability in purification process and bioassays (Stability) | activity against melanoma cell lines [1] | solubility to water at pH 7 | effect on uninfected cells (uninfected cells) | activity against virus (RS virus) | inhibition at 1 µM (RS virus) [%] | inhibition at 100 µM (RS virus) [%] | activity against virus (herpes simplex (HSV)) | inhibition % 100 μM (herpes simplex (HSV)) | inhibition at 1 µM (herpes simplex (HSV)) [%] | anticancer activity (cytotoxicity screen) (MES-SA) | inhibition at 1 µM (CBV5 virus) [%] | activity against virus (CBV5 virus) | antiviral activity against parvovirus (inhibition of infection of cells) [2] | activity against virus (adenovirus) | inhibition at 1 µM (adenovirus) [%] | inhibition at 100 µM (adenovirus) [%] | inhibition at 1 µM (influenza B) [%] | inhibition at 100 µM (influenza B) [%] | also measured
CC(=O)/C=C1/C=C2OC(CC(=O)O)Cc3cc4cccc(O)c4c(c32)O1 (stereo not drawn) [S2507] | stable and non-reactive | stable | active against some melanoma cell lines | slightly soluble | without disturbing the uninfected cells | active | 100 | 100 | active | toxic | 100 | fail to show anticancer activity | 100 | active | remarkable antiviral activity; also recorded: partially inhibit the infection | active | 90 | 100 | 100 | 100 | pKa (pKa): ~4.6; cytotoxic properties (uninfected cells; highest concentration studied, 500 nM): did not exhibit cytotoxic properties; effect on the weight of the mice (mice): no effect; outer signs of general illness (mice): no outer signs of general illness were noticed; inhibition at 100 µM (CBV5 virus; CBV5, 100 μM): 100%; effect on parvovirus over concentration range ([2]; 5 nM to 500 nM): dose-activity correlation; activity against virus (influenza B): active; activity against virus (cytomegalovirus (CMV)): only S2502 was active against CMV; inhibition at 1 µM (cytomegalovirus (CMV)): 0%; inhibition at 100 µM (cytomegalovirus (CMV)): 0%; toxicity to cells [3]: toxic; anticancer activity (cytotoxicity screen) (MES-SA/Dx5): fail to show anticancer activity; cytotoxic effect [4]: not found; tolerance of control cultivations without virus [4]: tolerated well
COC(=O)CC1Cc2cc3cccc(O)c3c3c2C(=C/C(=C/C(C)=O)O3)O1 (stereo not drawn) [S2502] | stable and non-reactive | stable | active against some melanoma cell lines | not soluble | without disturbing the uninfected cells | active | 100 | 100 | active | toxic | 100 | fail to show anticancer activity | 100 | active | remarkable antiviral activity; also recorded: partially inhibit the infection | active | 90 | 100 | 100 | 100 | inhibition % 100 μM (CBV5 virus; CBV5, 100 μM): toxic; activity against virus (influenza B): active; activity against virus (cytomegalovirus (CMV)): active; inhibition at 1 µM (cytomegalovirus (CMV)): 100%; inhibition at 100 µM (cytomegalovirus (CMV)): 100%; toxicity to cells [5]: toxic; toxicity to cells [3]: toxic; anticancer activity (cytotoxicity screen) (MES-SA/Dx5): fail to show anticancer activity; Minimal inhibitory concentration [6]: 50 µM (≈ 18.3 µg/mL); Minimal inhibitory concentration (human topoisomerase I): 25 µM (≈ 9.16 µg/mL); cytotoxic effect [4]: not found; tolerance of control cultivations without virus [4]: tolerated well
